According to patent US9005575B2, “Arg-Gly-Asp-conjugated alpha-melanocyte stimulating hormone hybrid peptide for use in diagnosing and treating melanoma, including metastatic melanoma and methods related to same” (STC.UNM, priority 2009, dated 2015):
Like-named read-outs stand apart in the source and are kept apart here. Positions of bridges follow the written chain, without caps; N, C: chain ends. Non-standard residues stand in square brackets, D forms with d. Residues, ends and D or L forms follow the SMILES beside them.

Assay: Biodistribution in B16/F1 melanoma-bearing C57 mice
Format: in vivo
Details: female, C57, mouse, iv, total radioactivity; for tissue uptake at 0.5 h / tissue to tissue ratio at 0.5 h: 0.5 h post-injection; for tissue uptake at 2 h / tissue to tissue ratio at 2 h: 2 h post-injection; for tissue uptake at 4 h / tissue to tissue ratio at 4 h: 4 h post-injection; for tissue uptake at 24 h / tissue to tissue ratio at 24 h: 24 h post-injection
Method: All the animal studies were conducted in compliance with Institutional Animal Care and Use Committee approval. The pharmacokinetics of ^99mTc-RGD-Lys-(Arg^11)CCMSH was determined in B16/F1 melanoma-bearing C57 female mice (Harlan, Indianapolis, Ind.). C57 mice were subcutaneously inoculated on the right flank with 1×10^6 B16/F1 cells. The weight of tumors reached approximately 0.2 g 10 days post cell inoculation. Each melanoma-bearing mouse was injected with 0.037 MBq of ^99mTc-RGD-Lys-(Arg^11)CCMSH via the tail vein. Groups of 5 mice were sacrificed at 0.5, 2, 4 and 24 h post-injection, and tumors and organs of interest were harvested, weighed and counted. Blood values were taken as 6.5% of the whole-body weight. The MC1 receptor specificity of the tumor uptake was determined at 2 h post-injection by co-injecting ^99mTc-RGD-Lys-(Arg^11)CCMSH with 10 μg (6.1 nmol) of unlabeled NDP-MSH, a linear α-MSH peptide analogue with picomolar affinity for the MC1 receptors present on murine melanoma cells. The co-injection of 3.5 μg (6.1 nmol) of RGD peptide was performed to determine the αvβ3 integrin specificity of the tumor uptake 2 h post-injection. Statistical analysis was performed using the Student's t-test for unpaired data.
All the animal studies were conducted in compliance with Institutional Animal Care and Use Committee approval. The pharmacokinetics of ^99mTc-RGD-Arg-(Arg^11)CCMSH was determined in B16/F1 melanoma-bearing C57 female mice (Harlan, Indianapolis, Ind.). C57 mice were subcutaneously inoculated on the right flank with 1×10^6 B16/F1 cells. The weight of tumors reached approximately 0.2 g 10 days post cell inoculation. Each melanoma-bearing mouse was injected with 0.037 MBq of ^99mTc-RGD-Arg-(Arg^11)CCMSH via the tail vein. Groups of 5 mice were sacrificed at 0.5, 2, 4 and 24 h post-injection, and tumors and organs of interest were harvested, weighed and counted. Blood values were taken as 6.5% of the whole-body weight. The MC1 receptor specificity of the tumor uptake was determined at 2 h post-injection by co-injecting ^99mTc-RGD-Arg-(Arg^11)CCMSH with 10 μg (6.1 nmol) of unlabeled NDP-MSH. The co-injection of 3.5 μg (6.1 nmol) of RGD peptide was performed to determine the αvβ3 integrin specificity of the tumor uptake at 2 h post-injection.

[1] = pancreas, 0.037 MBq, read-out: Pancreas, Percentage Injected Dose/gram
[2] = skin, 0.037 MBq, read-out: Skin, Percentage Injected Dose/gram
[3] = spleen, 0.037 MBq, read-out: Spleen, Percentage Injected Dose/gram
[4] = stomach, 0.037 MBq, read-out: Stomach, Percentage Injected Dose/gram
[5] = tumor, 0.037 MBq, read-out: Tumor, Percentage Injected Dose/gram
[6] = tumor/blood, 0.037 MBq, read-out: Uptake Ratio Tumor/Blood
[7] = tumor/kidneys, 0.037 MBq, read-out: Uptake Ratio Tumor/Kidneys
[8] = tumor/liver, 0.037 MBq, read-out: Uptake Ratio Tumor/Liver
[9] = tumor/lung, 0.037 MBq, read-out: Uptake Ratio Tumor/Lung
[10] = tumor/muscle, 0.037 MBq, read-out: Uptake Ratio Tumor/Muscle

Structure (SMILES): CC(C)[C@H](NC(=O)[C@@H]1CCCN1C(=O)[C@H](CCCNC(=N)N)NC(=O)[C@H](CS)NC(=O)[C@H](Cc1c[nH]c2ccccc12)NC(=O)[C@H](CCCNC(=N)N)NC(=O)[C@@H](Cc1ccccc1)NC(=O)[C@H](Cc1c[nH]cn1)NC(=O)[C@H](CCC(=O)O)NC(=O)[C@H](CS)NC(=O)[C@H](CS)NC(=O)[C@H](CCCCN)NC(=O)[C@@H]1CC(=O)N[C@@H](CCCNC(=N)N)C(=O)NCC(=O)N[C@@H](CC(=O)O)C(=O)N[C@H](Cc2ccc(O)cc2)C(=O)N1)C(N)=O [^99mTc-RGD-Lys-(Arg^11)CCMSH, metal not drawn] (RGD[dY]DKCCEH[dF]RWCRPV-NH2; lactam N-5)
- tissue uptake (normal organs except kidneys, 0.037 MBq, after 2 h post-injection, read-out: Normal organ uptakes except for the kidneys): < 3.2 %ID/g
- tissue uptake at 0.5 h [1]: 1.48 ± 1.24 %ID/g
- tissue uptake at 2 h [1]: 0.72 ± 0.53 %ID/g
- tissue uptake at 4 h [1]: 0.52 ± 0.41 %ID/g
- tissue uptake at 24 h [1]: 0.25 ± 0.06 %ID/g
- tissue uptake at 2 h (pancreas, NDP blockade (10 μg NDP-MSH co-injected), read-out: Pancreas, Percentage Injected Dose/gram): 0.44 ± 0.37 %ID/g
- tissue uptake at 2 h (pancreas, RGD blockade (3.5 μg RGD co-injected), read-out: Pancreas, Percentage Injected Dose/gram): 0.35 ± 0.19 %ID/g
- tissue uptake at 0.5 h [2]: 4.53 ± 0.88 %ID/g
- tissue uptake at 2 h [2]: 1.52 ± 0.66 %ID/g
- tissue uptake at 4 h [2]: 1.17 ± 0.61 %ID/g
- tissue uptake at 24 h [2]: 0.78 ± 0.19 %ID/g
- tissue uptake at 2 h (skin, NDP blockade (10 μg NDP-MSH co-injected), read-out: Skin, Percentage Injected Dose/gram): 1.14 ± 0.38 %ID/g
- tissue uptake at 2 h (skin, RGD blockade (3.5 μg RGD co-injected), read-out: Skin, Percentage Injected Dose/gram): 0.81 ± 0.13 %ID/g
- tissue uptake at 0.5 h [3]: 2.18 ± 0.88 %ID/g
- tissue uptake at 2 h [3]: 1.23 ± 0.62 %ID/g
- tissue uptake at 4 h [3]: 1.14 ± 0.16 %ID/g
- tissue uptake at 24 h [3]: 0.88 ± 0.3 %ID/g
- tissue uptake at 2 h (spleen, NDP blockade (10 μg NDP-MSH co-injected), read-out: Spleen, Percentage Injected Dose/gram): 0.75 ± 0.37 %ID/g
- tissue uptake at 2 h (spleen, RGD blockade (3.5 μg RGD co-injected), read-out: Spleen, Percentage Injected Dose/gram): 0.94 ± 0.3 %ID/g
- tissue uptake at 0.5 h [4]: 7.61 ± 1.98 %ID/g
- tissue uptake at 2 h [4]: 2.57 ± 0.38 %ID/g
- tissue uptake at 4 h [4]: 2.46 ± 1.39 %ID/g
- tissue uptake at 24 h [4]: 0.91 ± 0.67 %ID/g
- tissue uptake at 2 h (stomach, NDP blockade (10 μg NDP-MSH co-injected), read-out: Stomach, Percentage Injected Dose/gram): 2.43 ± 0.8 %ID/g
- tissue uptake at 2 h (stomach, RGD blockade (3.5 μg RGD co-injected), read-out: Stomach, Percentage Injected Dose/gram): 2.64 ± 0.1 %ID/g
- tissue uptake at 0.5 h [5]: 11.1 ± 1.41 %ID/g
- tissue uptake at 2 h [5]: 14.8 ± 2.94 %ID/g
- tissue uptake at 4 h [5]: 12.6 ± 2.53 %ID/g
- tissue uptake at 24 h [5]: 7.59 ± 2.04 %ID/g
- tissue uptake at 2 h (tumor, NDP blockade (10 μg NDP-MSH co-injected), read-out: Tumor, Percentage Injected Dose/gram): 1.81 ± 0.64 %ID/g
- tissue uptake at 2 h (tumor, RGD blockade (3.5 μg RGD co-injected), read-out: Tumor, Percentage Injected Dose/gram): 10.5 ± 1.18 %ID/g
- tissue to tissue ratio at 0.5 h [6]: 3.48
- tissue to tissue ratio at 2 h [6]: 15.4
- tissue to tissue ratio at 4 h [6]: 25.1
- tissue to tissue ratio at 24 h [6]: 69
- tissue to tissue ratio at 2 h (tumor/blood, NDP blockade (10 μg NDP-MSH co-injected), read-out: Uptake Ratio Tumor/Blood): 5.66
- tissue to tissue ratio at 2 h (tumor/blood, RGD blockade (3.5 μg RGD co-injected), read-out: Uptake Ratio Tumor/Blood): 19.8
- tissue to tissue ratio at 0.5 h [7]: 0.16
- tissue to tissue ratio at 2 h [7]: 0.22
- tissue to tissue ratio at 4 h [7]: 0.18
- tissue to tissue ratio at 24 h [7]: 0.19
- tissue to tissue ratio at 2 h (tumor/kidneys, NDP blockade (10 μg NDP-MSH co-injected), read-out: Uptake Ratio Tumor/Kidneys): 0.03
- tissue to tissue ratio at 2 h (tumor/kidneys, RGD blockade (3.5 μg RGD co-injected), read-out: Uptake Ratio Tumor/Kidneys): 0.19
- tissue to tissue ratio at 0.5 h [8]: 2.75
- tissue to tissue ratio at 2 h [8]: 4.68
- tissue to tissue ratio at 4 h [8]: 4.32
- tissue to tissue ratio at 24 h [8]: 4.39
- tissue to tissue ratio at 2 h (tumor/liver, NDP blockade (10 μg NDP-MSH co-injected), read-out: Uptake Ratio Tumor/Liver): 0.63
- tissue to tissue ratio at 2 h (tumor/liver, RGD blockade (3.5 μg RGD co-injected), read-out: Uptake Ratio Tumor/Liver): 4.63
- tissue to tissue ratio at 0.5 h [9]: 2.08
- tissue to tissue ratio at 2 h [9]: 11.8
- tissue to tissue ratio at 4 h [9]: 11.8
- tissue to tissue ratio at 24 h [9]: 8.07
- tissue to tissue ratio at 2 h (tumor/lung, NDP blockade (10 μg NDP-MSH co-injected), read-out: Uptake Ratio Tumor/Lung): 1.38
- tissue to tissue ratio at 2 h (tumor/lung, RGD blockade (3.5 μg RGD co-injected), read-out: Uptake Ratio Tumor/Lung): 9.38
- tissue to tissue ratio at 0.5 h [10]: 29.1
- tissue to tissue ratio at 2 h [10]: 43.6
- tissue to tissue ratio at 4 h [10]: 96.7
- tissue to tissue ratio at 24 h [10]: 33
- tissue to tissue ratio at 2 h (tumor/muscle, NDP blockade (10 μg NDP-MSH co-injected), read-out: Uptake Ratio Tumor/Muscle): 8.62
- tissue to tissue ratio at 2 h (tumor/muscle, RGD blockade (3.5 μg RGD co-injected), read-out: Uptake Ratio Tumor/Muscle): 70
